The values below come from patent US20130184257A1, “PIPERIDINYL-SUBSTITUTED LACTAMS AS GPR119 MODULATORS” (priority 2010, published 2013).

The test system of this assay is modified version of the GPR119 receptor (94% identity to human receptor) stably expressed in HEK-293 cells. The experiment in a line: cAMP Production Assay (LANCE cAMP kit, TR-FRET). Format: cell-based. The settings on record: for cAMP production in HEK-293 cells: HEK-293 cells expressing modified GPR119, test compounds 0.2 nM to 10 μM, one-hour incubation at ambient temperature; for Fold over baseline: increase in cAMP relative to basal levels, 1.5-fold or greater = agonist activity. Here is the method: The assay utilized HEK-293 cells that stably express a modified version of the GPR119 receptor (94% identity to human receptor), under the control of a CMV promoter containing a tet-on element for tetracycline-inducible expression. GPR119 agonist-induced cyclic AMP (cAMP) production was measured in this cell line using the LANCE cAMP kit (Perkin Elmer, Waltham, Mass.). To generate a working stock of cells for the assay, cells were treated overnight with 1 μg/mL doxycycline at 37° C. in the presence of 5% CO2 to induce receptor expression. Cells were then harvested by enzymatic dissociation with 0.05% trypsin, resuspended in freezing medium (DMEM growth medium with 10% each of fetal bovine serum and DMSO), aliquoted and frozen at −80° C. On the day of the assay, frozen cells were thawed, washed 1× in PBS and resuspended in Hank's buffered salt solution (HBSS) containing 5 mM HEPES, 0.1% BSA and Alexa Fluor 647-conjugated anti-cAMP antibody (diluted 1:100). The cell suspension was then transferred to a Proxiplate Plus white 384-well assay plate (Perkin-Elmer) at 2000 cells/well. Test compounds at final concentrations ranging from 0.2 nM to 10 μM were added to the assay plate, followed by a one-hour incubation at ambient temperature (volume=10 μL/well). DMSO concentration was held constant at 0.5%. After incubation with test compounds, 10 μL of a detergent buffer containing a biotinylated cAMP/Europium-conjugated streptavidin complex (Europium-labeled cAMP tracer) were added to each well on the assay plate, followed by a 2-hour incubation at ambient temperature. During this incubation cAMP released from lysed cells competes with the Europium-labeled cAMP tracer for binding to the Alexa Fluor 647-conjugated antibody. […] Cellular cAMP levels were then determined by interpolation of raw signal data using a cAMP standard curve. Compounds were determined to have agonist activity if they stimulated a 1.5-fold or greater increase in cAMP relative to basal levels.

With `CS(=O)(=O)c1cc(F)c(N[C@H]2CCCN(C3CCN(c4noc(C(F)F)n4)CC3)C2=O)cc1F` [Example 33, (S)-3-(2,5-difluoro-4-(methylsulfonyl)phenylamino)-1′-(5-(difluoromethyl)-1,2,4-oxadiazol-3-yl)-1,4′-bipiperidin-2-one], the “cAMP production in HEK-293 cells” value is 10.1 nmol and the Fold over baseline is given as 2.5.
Consider `CS(=O)(=O)c1cc(F)c(N[C@H]2CCN(C3CCN(c4noc(C(F)(F)F)n4)CC3)C2=O)c(F)c1` [Example 22, (S)-3-(2,6-difluoro-4-(methylsulfonyl)phenylamino)-1-(1-(5-(trifluoromethyl)-1,2,4-oxadiazol-3-yl)piperidin-4-yl)pyrrolidin-2-one], for which the “cAMP production in HEK-293 cells” value came out at 17.6 nmol and the Fold over baseline came out at 3.6.
On to `CS(=O)(=O)c1cc(F)c(N[C@H]2CCCCN(C3CCN(c4noc(C(F)(F)F)n4)CC3)C2=O)cc1F` [Example 53, (S)-3-(2,5-difluoro-4-(methylsulfonyl)phenylamino)-1-(1-(5-(trifluoromethyl)-1,2,4-oxadiazol-3-yl)piperidin-4-yl)azepan-2-one], for which the “cAMP production in HEK-293 cells” value worked out at 11.8 nmol and the Fold over baseline worked out at 4.7.
Take `CC(C)c1nc(N2CCC(N3CC[C@H](Oc4c(F)cc(S(C)(=O)=O)cc4F)C3=O)CC2)no1` [Example 20, (S)-3-(2,6-difluoro-4-(methylsulfonyl)phenoxy)-1-(1-(5-isopropyl-1,2,4-oxadiazol-3-yl)piperidin-4-yl)pyrrolidin-2-one]: the “cAMP production in HEK-293 cells” value was found to be 19.4 nmol and the Fold over baseline was found to be 3.7.
For `CC(C)c1noc(N2CCC(N3CC[C@H](Nc4ccc(S(C)(=O)=O)cc4F)C3=O)CC2)n1` [Example 8, (S)-3-(2-fluoro-4-(methylsulfonyl)phenylamino)-1-(1-(3-isopropyl-1,2,4-oxadiazol-5-yl)piperidin-4-yl)pyrrolidin-2-one] the same measures were 25.0 nmol and 4.9.
For `CC(C)(F)c1nc(N2CCC(N3CC[C@H](Nc4ccc(S(C)(=O)=O)cc4F)C3=O)CC2)no1` [Example 42, (S)-3-(2-fluoro-4-(methylsulfonyl)-phenylamino)-1-(1-(5-(2-fluoropropan-2-yl)-1,2,4-oxadiazol-3-yl)piperidin-4-yl)pyrrolidin-2-one] the same measures were 12.5 nmol and 5.1.
Taken in the same sequence, the figures for `CC(C)(c1nc(N2CCC(N3CC[C@H](Nc4ccc(S(C)(=O)=O)cc4F)C3=O)CC2)no1)C(F)(F)F` [Example 39, (S)-3-(2-fluoro-4-(methylsulfonyl)-phenylamino)-1-(1-(5-(1,1,1-trifluoro-2-methylpropan-2-yl)-1,2,4-oxadiazol-3-yl)piperidin-4-yl)pyrrolidin-2-one] were 8.7 nmol and 2.9.
On to `CC(F)(F)c1nc(N2CCC(N3CC[C@H](Oc4cc(F)c(S(C)(=O)=O)cc4F)C3=O)CC2)no1` [Example 52, (S)-3-(2,5-difluoro-4-(methylsulfonyl)phenoxy)-1-(1-(5-(1,1-difluoroethyl)-1,2,4-oxadiazol-3-yl)piperidin-4-yl)pyrrolidin-2-one], for which the “cAMP production in HEK-293 cells” value was 15.5 nmol and the Fold over baseline was 5.8.
`CS(=O)(=O)c1ccc(N[C@H]2CCCN(C3CCN(c4noc(C(F)(F)F)n4)CC3)C2=O)c(F)c1` [Example 29, (S)-3-(2-fluoro-4-(methylsulfonyl)phenylamino)-1′-(5-(trifluoromethyl)-1,2,4-oxadiazol-3-yl)-1,4′-bipiperidin-2-one]: the “cAMP production in HEK-293 cells” value is 47.6 nmol and the Fold over baseline is recorded as 3.0.
As for `CC(C)(C)c1noc(N2CCC(N3CC[C@H](Oc4ccc(S(C)(=O)=O)cc4F)C3=O)CC2)n1` [Example 5, (S)-1-(1-(3-tert-butyl-1,2,4-oxadiazol-5-yl)piperidin-4-yl)-3-(2-fluoro-4-(methylsulfonyl)phenoxy)pyrrolidin-2-one], the “cAMP production in HEK-293 cells” value was found to be 22.7 nmol and the Fold over baseline is on record as 4.8.
`CS(=O)(=O)c1ccc(N[C@H]2CCN(C3CCN(c4noc(C5CCC5)n4)CC3)C2=O)c(F)c1` [Example 40, (S)-1-(1-(5-cyclobutyl-1,2,4-oxadiazol-3-yl)piperidin-4-yl)-3-(2-fluoro-4-(methylsulfonyl)-phenylamino)pyrrolidin-2-one]: the “cAMP production in HEK-293 cells” value turned out to be 17.5 nmol and the Fold over baseline was determined as 5.7.
Taken in the same sequence, the figures for `CS(=O)(=O)c1ccc(N[C@H]2CCN(C3CCN(c4noc(C(Cl)(Cl)Cl)n4)CC3)C2=O)c(F)c1` [Example 13, (S)-3-(2-fluoro-4-(methylsulfonyl)phenylamino)-1-(1-(5-(trichloromethyl)-1,2,4-oxadiazol-3-yl)piperidin-4-yl)pyrrolidin-2-one] were 17.3 nmol and 3.0.
Taken in the same sequence, the figures for `CS(=O)(=O)c1cc(F)c(N[C@H]2CCCN(C3CCN(c4noc(C(F)F)n4)CC3)C2=O)c(F)c1` [Example 32, (S)-3-(2,6-difluoro-4-(methylsulfonyl)phenylamino)-1′-(5-(difluoromethyl)-1,2,4-oxadiazol-3-yl)-1,4′-bipiperidin-2-one] were 7.9 nmol and 2.4.
Taken in the same sequence, the figures for `CS(=O)(=O)c1ccc(N[C@H]2CCN(C3CCN(c4noc(C(F)F)n4)CC3)C2=O)c(F)c1` [Example 21, (S)-1-(1-(5-(difluoromethyl)-1,2,4-oxadiazol-3-yl)piperidin-4-yl)-3-(2-fluoro-4-(methylsulfonyl)phenylamino)pyrrolidin-2-one] were 21.0 nmol and 2.8.
As to `CC(F)(F)c1noc(N2CCC(N3CCC[C@H](Nc4c(F)cc(S(C)(=O)=O)cc4F)C3=O)CC2)n1` [Example 62, (S)-3-((2,6-difluoro-4-(methylsulfonyl)phenyl)amino)-1′-(3-(1,1-difluoroethyl)-1,2,4-oxadiazol-5-yl)-[1,4′-bipiperidin]-2-one], the “cAMP production in HEK-293 cells” value stood at 16.2 nmol and the Fold over baseline worked out at 2.6.
For `CCCc1nc(N2CCC(N3CC[C@H](Nc4ccc(S(C)(=O)=O)cc4F)C3=O)CC2)no1` [Example 37] the same measures were 12.2 nmol and 3.7.
Regarding `CS(=O)(=O)c1cc(F)c(O[C@H]2CCCN(C3CCN(c4noc(C(F)(F)F)n4)CC3)C2=O)cc1F` [Example 54, (S)-3-(2,5-difluoro-4-(methylsulfonyl)phenoxy)-1′-(5-(trifluoromethyl)-1,2,4-oxadiazol-3-yl)-[1,4′-bipiperidin]-2-one], the “cAMP production in HEK-293 cells” value amounted to 19.9 nmol and the Fold over baseline worked out at 4.9.
For `CCS(=O)(=O)c1ccc(N[C@H]2CCN(C3CCN(c4noc(C(F)(F)F)n4)CC3)C2=O)c(F)c1` [Example 34, (S)-3-(4-(ethylsulfonyl)-2-fluorophenylamino)-1-(1-(5-(trifluoromethyl)-1,2,4-oxadiazol-3-yl)piperidin-4-yl)pyrrolidin-2-one] the same measures were 7.3 nmol and 2.8.
As to `CC(C)(C)c1noc(N2CCC(N3CC[C@H](Oc4cc(F)c(S(C)(=O)=O)cc4F)C3=O)CC2)n1` [Example 3, (S)-1-(1-(3-tert-butyl-1,2,4-oxadiazol-5-yl)piperidin-4-yl)-3-(2,5-difluoro-4-(methylsulfonyl)phenoxy)pyrrolidin-2-one], the “cAMP production in HEK-293 cells” value turned out to be 21.7 nmol and the Fold over baseline worked out at 3.3.
Taken in the same sequence, the figures for `CC(C)c1nc(N2CCC(N3CC[C@H](Oc4cc(F)c(S(C)(=O)=O)cc4F)C3=O)CC2)no1` [Example 19, (S)-3-(2,5-difluoro-4-(methylsulfonyl)phenoxy)-1-(1-(5-isopropyl-1,2,4-oxadiazol-3-yl)piperidin-4-yl)pyrrolidin-2-one] were 24.9 nmol and 4.1.
For `CS(=O)(=O)c1ccc(N[C@H]2CCN(C3CCN(c4noc(C(F)(F)F)n4)CC3)C2=O)cn1` [Example 57, (S)-3-((6-(methylsulfonyl)pyridin-3-yl)amino)-1-(1-(5-(trifluoromethyl)-1,2,4-oxadiazol-3-yl)piperidin-4-yl)pyrrolidin-2-one] the same measures were 27.2 nmol and 3.7.
Taken in the same sequence, the figures for `CC(F)(F)c1noc(N2CCC(N3CC[C@H](Oc4cc(F)c(S(C)(=O)=O)cc4F)C3=O)CC2)n1` [Example 63, (S)-3-(2,5-difluoro-4-(methylsulfonyl)phenoxy)-1-(1-(3-(1,1-difluoroethyl)-1,2,4-oxadiazol-5-yl)piperidin-4-yl)pyrrolidin-2-one] were 21.6 nmol and 3.6.
